# Test results reported in US20150224089A1, “COMBINATIONS OF IKKi/TBK1 INHIBITORS WITH BETA ADRENERGIC AGONISTS OR SYMPATHETIC NERVOUS SYSTEM ACTIVATORS” (THE REGENTS OF THE UNIVERSITY OF MICHIGAN, priority 2014, published 2015).
# Columns and labels:
# 3T3-L1 adipocytes [1] = test: Ucp1 gene expression in 3T3-L1 adipocytes; assay type: cell-based; settings: empty vector-expressing cells; 10 μM for 4 hr; treated relative to control samples
# Experimental: (§1) (A) Fold increase in Ucp1 expression in 3T3-L1 adipocytes expressing empty vector, Flag-IKKε, or Flag-IKKε K38A following treatment with or without 10 μM ISO (black bars) or 10 μM CL-316,243 (CL, gray bars) for 4 hr. (B) Glycerol release from 3T3-L1 adipocytes expressing empty vector (white bars), Flag-IKKε (black bars), or Flag-IKKε K38A (gray bars) treated with or without 10 μM ISO or 10 μM CL. (C) Immunoblots of whole cell lysates from FIG. 1B. Results were replicated in triplicate. D.E. stands for dark exposure and L.E. stands for light exposure. (D) Immunoblots of whole cell lysates from 3T3-L1 adipocytes expressing empty vector or Flag-IKKε treated with or without 50 μM FSK for 15 min. (E) cAMP levels from 3T3-L1 adipocytes expressing empty vector, Flag-IKKε, or Flag-IKKε K38A treated with or without 10 μM ISO or 50 μM FSK for 15 min.
# Sympathetic activation of adipose tissue is involved in maintaining energy balance by stimulating lipolysis and fat oxidation (Coppack et al., 1994; Langin, 2006; Festuccia et al., 2011; herein incorporated by reference in their entireties). Activation of β-adrenergic signaling by either β-adrenergic agonists or cold exposure in white and brown adipose tissue initiates a cascade of events through cyclic AMP (cAMP), culminating in the transcriptional upregulation of Ucp1, which results in increased proton leak and energy expenditure (Himms-Hagen et al., 2000; Cao et al., 2004; Yehuda-Shnaidman et al., 2010; herein incorporated by reference in their entireties). […] This effect was further analyzed by overexpressing IKKε in 3T3-L1 adipocytes and examining Ucp1 gene expression after treatment with the non-selective β-adrenergic agonist, isoproterenol (ISO), or the β3-adrenergic agonist, CL-316,243. Fold difference in Ucp1 gene expression was calculated by normalization of relative Ucp1 mRNA levels in treated relative to control samples. […] The induction of Ucp1 gene expression in response to ISO or CL-316,243 was blunted when WT IKKε was overexpressed in these cells. […]
# 3T3-L1 adipocytes [2] = test: Glycerol release (lipolysis) from 3T3-L1 adipocytes; assay type: cell-based; settings: for lipolysis (glycerol release): empty vector-expressing cells, 10 μM
# Experimental: as §1
# (§2) (A) Glycerol release from 3T3-L1 adipocytes treated with or without different concentrations of TNFα as indicated for 24 hr followed by treatment with or without 10 μM ISO or 50 μM FSK. (B) cAMP levels from 3T3-L1 adipocytes treated with or without 100 ng/ml TNFα for 24 hr followed by treatment with or without 10 μM ISO or 50 μM FSK in the presence or absence of pretreatment of 50 μM Amlexanox (Am). (C) cAMP levels from 3T3-L1 adipocytes treated with or without 100 ng/ml TNFα for 24 hr followed by treatment with or without 50 μM FSK in the presence or absence of pretreatment of 1 μM CAY10576 (CAY). (D) Immunoblots of whole cell lysates from 3T3-L1 adipocytes treated with or without different concentrations of TNFα as same as FIG. 2A for 24 hr followed by treatment with or without 10 μM ISO or 50 μM FSK. Results were replicated in multiple experiments. ‘[’ indicates total HSL. ‘n.s.’ represents non-specific band. Arrow indicates CGI-58. (E) Immunoblots of whole cell lysates from 3T3-L1 adipocytes treated with or without 50 ng/ml TNFα or 100 μg/ml poly (I:C) for 24 hr followed by treatment with or without 10 μM ISO for 15 min in the presence or absence of pretreatment with increasing concentrations (0, 10, 50, and 200 μM) of amlexanox for 30 min.
# The obesity-dependent increase was modeled in the noncanonical IKKs by overexpressing IKKε in 3T3-L1 adipocytes, followed by assay of glycerol release in response to ISO or CL-316,243. […] Overexpression of TBK1 reduced phosphorylation of HSL in response to isoproterenol or the adenylyl cyclase activator, forskolin (FIG. 1). Identical results were obtained when IKKε was overexpressed in 3T3-L1 adipocytes stimulated with forskolin (FIG. 1D), as detected by western blotting with an anti-phospho-PKA substrate motif antibody. […]
# 3T3-L1 adipocytes [3] = test: cAMP levels in 3T3-L1 adipocytes; assay type: cell-based
# Experimental: as §2
# (A) cAMP levels from 3T3-L1 adipocytes expressing empty vector, Flag-IKKε, or Flag-TBK1 treated with or without 50 μM FSK, 250 μM IBMX, or together for 15 min. (B) cAMP levels from 3T3-L1 adipocytes expressing empty vector, Flag-IKKε, or Flag-TBK1 treated with or without 10 μM ISO or 50 μM FSK together with or without 10 μM Zardaverine (Zarda) for 15 min. (C) 32P phospho-image of in vitro kinase reaction using either immunoprecipitated HA-PDE3B from HEK293T cells or 1 μg MBP (myelin basic protein) as a substrate with recombinant kinases as indicated. (D) Immunoblots of immunoprecipitation with anti-HA antibodies followed by treatment with or without CIP (top panel) and whole cell lysates (bottom panel) from Cos-1 cells co-expressing HA-PDE3B with Flag-IKKε/TBK1 or Flag-IKKε/TBK1 K38A. D.E. stands for dark exposure and L.E. stands for light exposure. (E) Immunoblots of GST-14-3-3 pulldown from HEK293T cells co-expressing HA-PDE3B with Flag-TBK1 or Flag-TBK1 K38A.
# Obesity is accompanied by infiltration of proinflammatory macrophages into adipose tissue; these cells secrete inflammatory cytokines, such as TNFα, which generate insulin resistance by stimulating catabolic pathways (Hotamisligil, 2006; Lumeng et al., 2007; Ye and Keller, 2010; Ouchi et al., 2011; herein incorporated by reference in their entireties). Although TNFα is known to increase lipolysis in adipocytes (Zhang et al., 2002; Souza et al., 2003; Green et al., 2004; Plomgaard et al., 2008; herein incorporated by reference in their entireties), there is also evidence of a counterinflammatory response in obesity that may serve to repress energy expenditure (Gregor and Hotamisligil, 2011; Saltiel, 2012; Calay and Hotamisligil, 2013; Reilly et al., 2013; herein incorporated by reference in their entireties). Experiments were conducted during development of embodiments of the present invention using TNFα to model the inflammatory milieu of obese adipose tissue in cell culture to determine whether the cytokine might also regulate β-adrenergic signaling in this context. While short-term treatment with TNFα augmented the increase in cAMP produced by forskolin treatment, this effect declined after 12 hr. […] Thus, the catabolic effects of the proinflammatory cytokine TNFα in adipocytes are transient and followed by an inhibitory phase.
# Treatment of 3T3-L1 adipocytes with TNFα for 24 hr induced the expression of IKKε and increased TBK1 phosphorylation at the active site in a manner that was dependent on the activity of IKKβ and the NFκB pathway (Reilly et al., 2013; herein incorporated by reference in its entirety). […]
# diet-induced obese mice = test: Serum FFA and glycerol after CL-316,243 injection in ND- or HFD-fed mice; assay type: in vivo; settings: normal diet mice, vehicle and amlexanox-treated; 15 min after IP CL-316,243 injection
# Experimental: (A) Fold increase in serum FFA (left panel) and glycerol (right panel) levels 15 min after CL-316,243 injection in ND- or HFD-fed mice treated with amlexanox or vehicle control for 4 days. (B) Glycerol release from ex vivo epididymal (left panel) and inguinal (right panel) WATs after 1 hr pretreatment with amlexanox or vehicle. CL-316,243 treatment was started at time zero. (C) Immunoblots in inguinal WAT lysates from FIG. 5B after 60 min of CL-316,243 treatment. (D) cAMP levels in epididymal WAT 20 min after CL-316,243 (CL) or saline control injection in HFD-fed mice treated with amlexanox or vehicle control for 4 days. (E) Immunoblots in epididymal WAT 5 min after CL-316,243 or saline control injection in HFD-fed mice treated with amlexanox or vehicle control for 4 days. (F) Relative oxygen comsumption of mice in each treatment group.
# To test the functional importance of the noncanonical IKKs in maintaining energy balance in vivo, experiments were conducted during development of embodiments of the present invention to investigate whether the administration of a selective inhibitor of IKKε and TBK1, amlexanox, can reverse diet-induced catecholamine resistance in rodentsMice were fed a high fat or normal diet, treated them with amlexanox by oral gavage for 4 days (prior to the point when weight loss is seen), and then gave a single intraperitoneal (IP) injection of the β3-adrenergic agonist CL-316,243. Injection of CL-316,243 stimulated a threefold increase in serum FFA and glycerol levels in both vehicle and amlexanox-treated mice on normal diet (ND).
# 3T3-L1 adipocytes [4] = test: Immunoblots of β-adrenergic/PKA signaling (HSL, perilipin, PKA substrate, p38 phosphorylation) in 3T3-L1 adipocytes; assay type: cell-based; settings: treatment with Poly (I:C)
# Experimental: as §2, with “Results were replicated in multiple experiments. ‘[’ indicates total HSL. ‘n.s.’ represents non-specific band.” left out
# Experiments were conducted during development of embodiments of the present invention to determine whether the repression of β-adrenergic sensitivity produced by longer-term treatment with TNFα is due to increased activity of the noncanonical IKKs.
molecule,measurement,setting,value
CC(C)NCC(O)c1ccc(O)c(O)c1 (centres unmarked) [isoproterenol],increase in Ucp1 mRNA levels,3T3-L1 adipocytes [1],1.6 fold
same,lipolysis (glycerol release),3T3-L1 adipocytes [2],increased lipolysis
COc1cc2ncn(-c3cc(OCc4ccccc4S(C)(=O)=O)c(C#N)s3)c2cc1OC [CAY10576],rescue of TNFα-decreased forskolin-stimulated cAMP production,"3T3-L1 adipocytes [3]; preincubation with 1 μM CAY10576, 100 ng/ml TNFα 24 hr, 50 μM FSK",largely rescued
CC(C)Cn1c(=O)n(C)c(=O)c2[nH]cnc21 [IBMX],cAMP production in response to forskolin in adipocytes expressing IKKε or TBK1,"3T3-L1 adipocytes [3]; 250 μM IBMX, 50 μM FSK, 15 min",rescued the full stimulation of cAMP production
"C[C@H](Cc1ccc2c(c1)OC(C(=O)[O-])(C(=O)[O-])O2)NC[C@H](O)c1cccc(Cl)c1.[Na+].[Na+] [CL-316,243]",increase in Ucp1 mRNA levels,3T3-L1 adipocytes [1],twofold
same,lipolysis (glycerol release),3T3-L1 adipocytes [2],increased lipolysis
same,increase in serum FFA levels,diet-induced obese mice,threefold
same,increase in serum glycerol levels,diet-induced obese mice,threefold
Poly (I:C),stimulation of lipolysis in response to β-adrenergic stimulation,3T3-L1 adipocytes [2]; treatment with Poly (I:C),reduced
same,stimulation of cAMP production in response to β-adrenergic stimulation,3T3-L1 adipocytes [3]; treatment with Poly (I:C),reduced
same,stimulation of phosphorylation in response to β-adrenergic stimulation,3T3-L1 adipocytes [4],reduced
